Test results from US20240109839A1, “NOVEL COMPOUND EXHIBITING ANTI-INFLAMMATORY ACTIVITY AS P38 MAP KINASE INHIBITOR” (PRAZERTHERAPEUTICS INC., priority 2021, published 2024).

Legend:
Raw264.7 cells = assay: Evaluation of nitric oxide inhibitory ability according to cellular inflammatory response (Griess reagent); type: cell-based; settings: 10 μM compound, 550 nm; for inhibition at 10 µM: Mus musculus, RAW264.7, 24 h, read-out: NO inhibition (%); for NO inhibition (%): 24 hours, 10 µM
Description: In order to identify an inflammatory inhibitory effect upon inhibition of p-p38 MAPK, each compound was treated to Raw264.7 cells obtained by transforming macrophages into cancerous cells involved in the inflammatory response, so as to identify inhibition of inflammation due to inhibition of p38 MAPK. Briefly, Raw264.7 cells were cultured in Dulbecco's Modified Eagle Medium supplemented with 10% fetal bovine serum and penicillin/streptomycin (100 U/ml). Raw 264.7 cells were treated with 10 μM of compounds 1 to 15 according to the present disclosure in a petri dish respectively, followed by culture in a CO2 incubator for 24 hours.
After completion of cell culture under experimental conditions, the supernatant was obtained and centrifuged at 1200 rpm for 3 minutes. The centrifuged supernatant was mixed with Griess reagent (1% sulfanilamide, 0.1% N-(1-naphthyl)ethylenediamine dihydrochloride, 5% phosphoric acid) at 1:1 and then a reaction was performed for 10 minutes under shaded condition. The concentration of nitric oxide was determined at a wavelength of 550 nm.

p38 alpha = p38 alpha (Homo sapiens, UniProt Q16539); assay: Evaluation of inhibitory ability of p38a mitogen-activated protein kinase (MAPK); type: biochemical; settings: Serine/Threonine 15 peptide, 1 hour at room temperature, read at 445 nm and 520 nm
Description: To identify the ability to inhibit p38 MAPK, compounds 1 to 15 were diluted to identify the inhibitory effect according to concentration. Briefly, the compounds were diluted at concentrations of […], respectively, and then a peptide/kinase mixture (final 7.07-28.3 ng p38 alpha, 2 μM Serine/Threonine 15, 50 mM HEPES pH 7.0, 0.01% NaN3) and ATP solution were added. After carrying out a reaction at room temperature for 1 hour, a development reagent was added, and a reaction was performed again at room temperature for 1 hour.

p-p38 MAPK = biological target: T1, p-p38 MAPK (Mus musculus, UniProt P47811); assay: Evaluation of p38 MAPK protein inhibitory ability in cells (p-p38 immunoblot); type: cell-based; settings: 10 μM compound, 24 hours; for inhibition at 10 µM: RAW264.7, Raw264.7 cells; for p-p38 inhibition %: Raw264.7 cells, 10 µM
T1 construct: endogenous in cells; host or cells: Raw264.7
Description: To identify inhibition of p-p38 MAPK, inhibition of p38 MAPK was identified after each compound was treated to Raw264.7 cells obtained by transforming macrophages into cancerous cells that cause inflammation according to p-p38 MAPK activity. Briefly, Raw264.7 cells were cultured in Dulbecco's modified Eagle Medium supplemented with 10% fetal bovine serum and penicillin/streptomycin (100 U/ml). Raw 264.7 cells were treated with 10 μM of compounds 1 to 15 according to the present disclosure in a petri dish respectively, followed by culture in a CO2 incubator for 24 hours. The effect of each compound on inhibition of p-p38 MAPK in cells was identified through protein immunoblot.
After completion of cell culture under the experimental conditions, washing was performed with cold phosphate buffered saline (PBS). The cells were then collected and centrifuged at 1200 rpm for 3 minutes. The precipitate was dissolved in cells with 2× sample buffer (1M Tris-HCl pH 6.8, 50% glycerol, 10% SDS, 2-mercaptoethanol, 1% bromophenol blue) and boiled at 100° C. for 10 minutes. The prepared protein samples were subjected to sodium dodecyl sulfate poly acrylamide gel electrophoresis and then transferred to PVDF membrane (Millipore). Blocking was performed in a 5% bovine serum albumin (BSA, RMbio) solution for a specific coupling reaction between the protein on the PVDF membrane and antibody. The BSA solution was then discarded, and the membrane was washed with PBS-T (0.5% tween 20 in PBS). The coupling reaction between the protein on the membrane and antibody was carried out overnight at 4° C., followed by washing again with PBS-T. Finally, a secondary antibody (Cell signaling Technology) conjugated with horseradish peroxidase (HRP) was diluted in PBS-T, and a reaction was carried out at room temperature for 2 hours. Luminata Forte HRP substrate (Millipore) was used to determine the protein amount on the membrane.

T1 sequence (P47811 whole entry): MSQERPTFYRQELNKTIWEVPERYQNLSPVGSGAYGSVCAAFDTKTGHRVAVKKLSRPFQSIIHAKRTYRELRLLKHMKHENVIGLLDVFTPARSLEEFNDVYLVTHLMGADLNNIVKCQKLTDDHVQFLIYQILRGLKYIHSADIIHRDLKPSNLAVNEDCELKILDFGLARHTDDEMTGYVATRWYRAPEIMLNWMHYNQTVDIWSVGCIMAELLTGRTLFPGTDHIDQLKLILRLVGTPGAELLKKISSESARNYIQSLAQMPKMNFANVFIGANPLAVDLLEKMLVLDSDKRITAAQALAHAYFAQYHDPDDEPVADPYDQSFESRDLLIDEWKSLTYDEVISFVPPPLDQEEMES
p38 alpha, sequence (Q16539 whole entry): as the sequence (P47811 whole entry) above, with H48L, A263T counted along it

Row | SMILES | inhibition at 10 µM (Raw264.7 cells) [%] | IC50 (p38 alpha) [nM] | inhibition at 10 µM (p-p38 MAPK) [%] | NO inhibition (%) (Raw264.7 cells) | p-p38 inhibition % (p-p38 MAPK) [%]
1 | Cc1ccc(C(=O)NC2CC2)cc1-c1ccc(C(=O)C2CCC2)cc1 [Compound 5, 4′-(cyclobutanecarbonyl)-N-cyclopropyl-6-methyl-[1,1′-biphenyl]-3-carboxamide] | 11.9 | 86.7 | 80.4 | – | –
2 | Cc1ccc(C(=O)NC2CC2)cc1-c1ccc(C(=O)C2CCCCC2)cc1 [Compound 7, 4′-(cyclohexanecarbonyl)-N-cyclopropyl-6-methyl-[1,1′-biphenyl]-3-carboxamide] | 15.5 | 72.6 | 87.6 | – | –
3 | Cc1ccc(C(=O)NC2CC2)cc1-c1ccc(C(=O)C2CC2)cc1 [Compound 4, 4′-(cyclopropanecarbonyl)-N-cyclopropyl-6-methyl-[1,1′-biphenyl]-3-carboxamide] | 26 | 39.2 | 20.9 | – | –
4 | Cc1ccc(C(=O)NC2CC2)cc1-c1ccc(C(=O)C2CCCC2)cc1 [Compound 6, 4′-(cyclopentanecarbonyl)-N-cyclopropyl-6-methyl-[1,1′-biphenyl]-3-carboxamide] | 24 | 128 | 76.2 | – | –
5 | COCCCC(C)C(=O)c1ccc(-c2cc(C(=O)NC3CC3)ccc2C)cc1 (stereo not drawn) [Compound 3, N-cyclopropyl-4′-(5-methoxy-2-methylpentanoyl)-6-methyl-[1,1′-biphenyl]-3-carboxamide] | – | 50.7 | – | – | –
6 | Cc1ccc(C(=O)NC2CC2)cc1-c1ccc(C(=O)C2CC=CC2)cc1 [Compound 9, 4′-(cyclopent-3-enecarbonyl)-N-cyclopropyl-6-methyl-[1,1′-biphenyl]-3-carboxamide] | 21.1 | 46.5 | 81.7 | – | –
7 | Cc1ccc(C(=O)NC2CC2)cc1-c1ccc(C(=O)C2CCC(OCCO)C2)cc1 (stereo not drawn) [11 (anti isomer), N-cyclopropyl-4′-(3-(2-hydroxyethoxy)cyclopentanecarbonyl)-6-methyl-[1,1′-biphenyl]-3-carboxamide] | – | 58.4 | – | 11.0 | 64.1
8 | COCCC(C)C(=O)c1ccc(-c2cc(C(=O)NC3CC3)ccc2C)cc1 (stereo not drawn) [Compound 2, N-cyclopropyl-4′-(4-methoxy-2-methylbutanoyl)-6-methyl-[1,1′-biphenyl]-3-carboxamide] | – | 21.9 | – | – | –
9 | Cc1ccc(C(=O)NC2CC2)cc1-c1ccc(C(=O)C(C)O)cc1 (stereo not drawn) [Compound 13, N-cyclopropyl-4′-(2-hydroxypropanoyl)-6-methyl-[1,1′-biphenyl]-3-carboxamide] | – | 50.8 | – | – | –
10 | Cc1ccc(C(=O)NC2CC2)cc1-c1ccc(C(=O)C2CCCCCC2)cc1 [Compound 8, 4′-(cycloheptanecarbonyl)-N-cyclopropyl-6-methyl-[1,1′-biphenyl]-3-carboxamide] | 43.6 | 46.6 | 83 | – | –
11 | Cc1ccc(C(=O)NC2CC2)cc1-c1ccc(C(=O)C2CCNC2)cc1 (stereo not drawn) [Compound 14, N-cyclopropyl-6-methyl-4′-(pyrrolidine-3-carbonyl)-[1,1′-biphenyl]-3-carboxamide] | – | 126 | 88.6 | – | –
12 | Cc1ccc(C(=O)NC2CC2)cc1-c1ccc(C(=O)C(C)(C)O)cc1 [Compound 1, N-cyclopropyl-4′-(2-hydroxy-2-methylpropanoyl)-6-methyl-[1,1′-biphenyl]-3-carboxamide] | – | 71.8 | – | – | –
13 | COCCOC1CCC(C(=O)c2ccc(-c3cc(C(=O)NC4CC4)ccc3C)cc2)C1 (stereo not drawn) [Compound 12, N-cyclopropyl-4′-(3-(2-methoxyethoxy)cyclopentane-1-carbonyl)-6-methyl-[1,1′-biphenyl]-3-carboxamide] | – | 21.8 | – | – | –
14 | Cc1ccc(C(=O)NC2CC2)cc1-c1ccc(C(=O)C2CCC(OCCO)C2)cc1 (stereo not drawn) [11 (syn isomer), N-cyclopropyl-4′-(3-(2-hydroxyethoxy)cyclopentanecarbonyl)-6-methyl-[1,1′-biphenyl]-3-carboxamide] | – | 27.8 | – | 30.6 | 41.9
15 | Cc1ccc(C(=O)NC2CC2)cc1-c1ccc(C(=O)C2CCC(O)C2)cc1 (stereo not drawn) [Compound 10, N-cyclopropyl-4′-(3-hydroxycyclopentanecarbonyl)-6-methyl-[1,1′-biphenyl]-3-carboxamide] | 11.1 | 22.5 | 44.7 | – | –
16 | COCCN1CCC(C(=O)c2ccc(-c3cc(C(=O)NC4CC4)ccc3C)cc2)C1 (stereo not drawn) [Compound 15, N-cyclopropyl-4′-(1-(2-methoxyethyl)pyrrolidine-3-carbonyl)-6-methyl-[1,1′-biphenyl]-3-carboxamide] | – | 158 | 79.2 | – | –
